Test results reported in article PMC5897044 (Cell host & microbe, 2017).
Bridge positions count the residues as written; N and C are the ends. Peptide text beside a SMILES is read from it.

Tested on: PMN infiltration in skin
Settings: mouse, in vivo

For `C[C@@H](O)[C@H](NC(=O)[C@H](CO)NC(=O)[C@@H](N)Cc1ccc(O)cc1)C(=O)N[C@H]1CSC(=O)[C@H](Cc2ccccc2)NC(=O)[C@H](Cc2ccc(O)cc2)NC(=O)[C@H](Cc2ccc(O)cc2)NC(=O)[C@H](CO)NC1=O` [S. caprae AIP] (H-YSTCSYYF; thioester 4-C), the “magnitude of PMN infiltration by sterile injection, AIP vs vehicle” value was “equivalent”.
